Data reported in PMC5458547, “Discovery of first-in-class reversible dual small molecule inhibitors against G9a and DNMTs in hematological malignancies” (Nature Communications, 2017).

Tests used:
Assay in all cases: KINOMEscan kinase profiling
Format in all cases: binding
[1] = target: T1, ABL1(T315I)-phosphorylated (Homo sapiens, UniProt P00519, T315I); details: read-out: Percent Control
T1 construct: purchased DiscoverX KINOMEscan (kinases); BPS Bioscience (epigenetic targets)
Protocol: (§1) Kinase Selectivity Profiling
(§2) (out of which 90 are non-mutant kinases) was performed at DiscoverRx (http://www.discoverx.com/home) using the KINOMEscan™ screening platform at a test concentration of 10 µM. Results for primary screen […]
(§3) positive control signal) / (negative control signal – positive control signal) *100, where negative control corresponds to DMSO treatment (100%) and positive control to the signal obtained with a control competitive compound (0%). […]
(§4) using the Hill equation. Each target was assayed in duplicate. […]

ABL1-nonphosphorylated = target: T2, ABL1-nonphosphorylated (Homo sapiens, UniProt P00519); details: read-out: Percent Control
T2 construct: purchased DiscoverX KINOMEscan (kinases); BPS Bioscience (epigenetic targets)
Protocol: as §1, §2, §3, §4

ACVR1B = target: T3, ACVR1B (Homo sapiens, UniProt P36896); details: read-out: Percent Control
T3 construct: purchased DiscoverX KINOMEscan (kinases); BPS Bioscience (epigenetic targets)
Protocol: as §1, §2, §3, §4

AKT2 = target: T4, AKT2 (Homo sapiens, UniProt P31751); details: read-out: Percent Control
T4 construct: purchased DiscoverX KINOMEscan (kinases); BPS Bioscience (epigenetic targets)
Protocol: as §1, §2, §3, §4

BRAF = target: T5, BRAF (Homo sapiens, UniProt P15056); details: read-out: Percent Control
T5 construct: purchased DiscoverX KINOMEscan (kinases); BPS Bioscience (epigenetic targets)
Protocol: as §1, §2, §3, §4

BRAF(V600E) = target: T6, BRAF(V600E) (Homo sapiens, UniProt P15056, V600E); details: read-out: Percent Control
T6 construct: purchased DiscoverX KINOMEscan (kinases); BPS Bioscience (epigenetic targets)
Protocol: as §1, §2, §3, §4

DCAMKL1 = target: T7, DCAMKL1 (Homo sapiens, UniProt O15075); details: read-out: Percent Control
T7 construct: purchased DiscoverX KINOMEscan (kinases); BPS Bioscience (epigenetic targets)
Protocol: as §1, §2, §3, §4

DYRK1B = target: T8, DYRK1B (Homo sapiens, UniProt Q9Y463); details: read-out: Percent Control
T8 construct: purchased DiscoverX KINOMEscan (kinases); BPS Bioscience (epigenetic targets)
Protocol: as §1, §2, §3, §4

EGFR = target: T9, EGFR (Homo sapiens, UniProt P00533); details: read-out: Percent Control
T9 construct: purchased DiscoverX KINOMEscan (kinases); BPS Bioscience (epigenetic targets)
Protocol: as §1, §2, §3, §4

EGFR(L858R) = target: T10, EGFR(L858R) (Homo sapiens, UniProt P00533, L858R); details: read-out: Percent Control
T10 construct: purchased DiscoverX KINOMEscan (kinases); BPS Bioscience (epigenetic targets)
Protocol: as §1, §2, §3, §4

ERBB2 = target: T11, ERBB2 (Homo sapiens, UniProt P04626)
T11 construct: purchased DiscoverRx (DiscoverX), KINOMEscan screening platform
Protocol: as §1, §2, §3, §4

ERBB4 = target: T12, ERBB4 (Homo sapiens, UniProt Q15303); details: read-out: Percent Control
T12 construct: purchased DiscoverX KINOMEscan (kinases); BPS Bioscience (epigenetic targets)
Protocol: as §1, §2, §3, §4

ERK1 = target: T13, ERK1 (Homo sapiens, UniProt P27361); details: read-out: Percent Control
T13 construct: purchased DiscoverX KINOMEscan (kinases); BPS Bioscience (epigenetic targets)
Protocol: as §1, §2, §3, §4

FAK = target: T14, FAK (Homo sapiens, UniProt Q05397); details: read-out: Percent Control
T14 construct: purchased DiscoverX KINOMEscan (kinases); BPS Bioscience (epigenetic targets)
Protocol: as §1, §2, §3, §4

IGF1R = target: T15, IGF1R (Homo sapiens, UniProt P08069); details: read-out: Percent Control
T15 construct: purchased DiscoverX KINOMEscan (kinases); BPS Bioscience (epigenetic targets)
Protocol: as §1, §2, §3, §4

IKK-alpha = target: T16, IKK-alpha (Homo sapiens, UniProt O15111); details: read-out: Percent Control
T16 construct: purchased DiscoverX KINOMEscan (kinases); BPS Bioscience (epigenetic targets)
Protocol: as §1, §2, §3, §4

IKK-beta = target: T17, IKK-beta (Homo sapiens, UniProt O14920); details: read-out: Percent Control
T17 construct: purchased DiscoverX KINOMEscan (kinases); BPS Bioscience (epigenetic targets)
Protocol: as §1, §2, §3, §4

[2] = target: T18, JAK2(JH1domain-catalytic) (Homo sapiens, UniProt O60674); details: read-out: Percent Control
T18 construct: JAK2(JH1domain-catalytic); purchased DiscoverX KINOMEscan (kinases); BPS Bioscience (epigenetic targets)
Protocol: as §1, §2, §3, §4

[3] = target: T19, JAK3(JH1domain-catalytic) (Homo sapiens, UniProt P52333)
T19 construct: JAK3(JH1domain-catalytic); purchased DiscoverRx (DiscoverX), KINOMEscan screening platform
Protocol: as §1, §2, §3, §4

JNK3 = target: T20, JNK3 (Homo sapiens, UniProt P53779); details: read-out: Percent Control
T20 construct: purchased DiscoverX KINOMEscan (kinases); BPS Bioscience (epigenetic targets)
Protocol: as §1, §2, §3, §4

MAPKAPK2 = target: T21, MAPKAPK2 (Homo sapiens, UniProt P49137); details: read-out: Percent Control
T21 construct: purchased DiscoverX KINOMEscan (kinases); BPS Bioscience (epigenetic targets)
Protocol: as §1, §2, §3, §4

MEK1 = target: T22, MEK1 (Homo sapiens, UniProt Q02750); details: read-out: Percent Control
T22 construct: purchased DiscoverX KINOMEscan (kinases); BPS Bioscience (epigenetic targets)
Protocol: as §1, §2, §3, §4

MEK2 = target: T23, MEK2 (Homo sapiens, UniProt P36507); details: read-out: Percent Control
T23 construct: purchased DiscoverX KINOMEscan (kinases); BPS Bioscience (epigenetic targets)
Protocol: as §1, §2, §3, §4

MKNK2 = target: T24, MKNK2 (Homo sapiens, UniProt Q9HBH9); details: read-out: Percent Control
T24 construct: purchased DiscoverX KINOMEscan (kinases); BPS Bioscience (epigenetic targets)
Protocol: as §1, §2, §3, §4

PIK3C2B = target: T25, PIK3C2B (Homo sapiens, UniProt O00750); details: read-out: Percent Control
T25 construct: purchased DiscoverX KINOMEscan (kinases); BPS Bioscience (epigenetic targets)
Protocol: as §1, §2, §3, §4

PIK3CA = target: T26, PIK3CA (Homo sapiens, UniProt P42336); details: read-out: Percent Control
T26 construct: purchased DiscoverX KINOMEscan (kinases); BPS Bioscience (epigenetic targets)
Protocol: as §1, §2, §3, §4

PIK3CG = target: T27, PIK3CG (Homo sapiens, UniProt P48736); details: read-out: Percent Control
T27 construct: purchased DiscoverX KINOMEscan (kinases); BPS Bioscience (epigenetic targets)
Protocol: as §1, §2, §3, §4

PIM3 = target: T28, PIM3 (Homo sapiens, UniProt Q86V86); details: read-out: Percent Control
T28 construct: purchased DiscoverX KINOMEscan (kinases); BPS Bioscience (epigenetic targets)
Protocol: as §1, §2, §3, §4

PKAC-alpha = target: T29, PKAC-alpha (Homo sapiens, UniProt P17612); details: read-out: Percent Control
T29 construct: purchased DiscoverX KINOMEscan (kinases); BPS Bioscience (epigenetic targets)
Protocol: as §1, §2, §3, §4

PLK3 = target: T30, PLK3 (Homo sapiens, UniProt Q9H4B4); details: read-out: Percent Control
T30 construct: purchased DiscoverX KINOMEscan (kinases); BPS Bioscience (epigenetic targets)
Protocol: as §1, §2, §3, §4

RIOK2 = target: T31, RIOK2 (Homo sapiens, UniProt Q9BVS4); details: read-out: Percent Control
T31 construct: purchased DiscoverX KINOMEscan (kinases); BPS Bioscience (epigenetic targets)
Protocol: as §1, §2, §3, §4

ROCK2 = target: T32, ROCK2 (Homo sapiens, UniProt O75116)
T32 construct: purchased DiscoverRx (DiscoverX), KINOMEscan screening platform
Protocol: as §1, §2, §3, §4

[4] = target: T33, RSK2(Kin.Dom.1-N-terminal) (Homo sapiens, UniProt P51812); details: read-out: Percent Control
T33 construct: RSK2(Kin.Dom.1-N-terminal); purchased DiscoverX KINOMEscan (kinases); BPS Bioscience (epigenetic targets)
Protocol: as §1, §2, §3, §4

SNARK = target: T34, SNARK (Homo sapiens, UniProt Q9H093); details: read-out: Percent Control
T34 construct: purchased DiscoverX KINOMEscan (kinases); BPS Bioscience (epigenetic targets)
Protocol: as §1, §2, §3, §4

SRC = target: T35, SRC (Homo sapiens, UniProt P12931); details: read-out: Percent Control
T35 construct: purchased DiscoverX KINOMEscan (kinases); BPS Bioscience (epigenetic targets)
Protocol: as §1, §2, §3, §4

TGFBR1 = target: T36, TGFBR1 (Homo sapiens, UniProt P36897); details: read-out: Percent Control
T36 construct: purchased DiscoverX KINOMEscan (kinases); BPS Bioscience (epigenetic targets)
Protocol: as §1, §2, §3, §4

TSSK1B = target: T37, TSSK1B (Homo sapiens, UniProt Q9BXA7); details: read-out: Percent Control
T37 construct: purchased DiscoverX KINOMEscan (kinases); BPS Bioscience (epigenetic targets)
Protocol: as §1, §2, §3, §4

[5] = target: T38, TYK2(JH1domain-catalytic) (Homo sapiens, UniProt P29597); details: read-out: Percent Control
T38 construct: TYK2(JH1domain-catalytic); purchased DiscoverX KINOMEscan (kinases); BPS Bioscience (epigenetic targets)
Protocol: as §1, §2, §3, §4

[6] = 10 µM, read-out: Percent Control

T32 sequence (O75116 whole entry): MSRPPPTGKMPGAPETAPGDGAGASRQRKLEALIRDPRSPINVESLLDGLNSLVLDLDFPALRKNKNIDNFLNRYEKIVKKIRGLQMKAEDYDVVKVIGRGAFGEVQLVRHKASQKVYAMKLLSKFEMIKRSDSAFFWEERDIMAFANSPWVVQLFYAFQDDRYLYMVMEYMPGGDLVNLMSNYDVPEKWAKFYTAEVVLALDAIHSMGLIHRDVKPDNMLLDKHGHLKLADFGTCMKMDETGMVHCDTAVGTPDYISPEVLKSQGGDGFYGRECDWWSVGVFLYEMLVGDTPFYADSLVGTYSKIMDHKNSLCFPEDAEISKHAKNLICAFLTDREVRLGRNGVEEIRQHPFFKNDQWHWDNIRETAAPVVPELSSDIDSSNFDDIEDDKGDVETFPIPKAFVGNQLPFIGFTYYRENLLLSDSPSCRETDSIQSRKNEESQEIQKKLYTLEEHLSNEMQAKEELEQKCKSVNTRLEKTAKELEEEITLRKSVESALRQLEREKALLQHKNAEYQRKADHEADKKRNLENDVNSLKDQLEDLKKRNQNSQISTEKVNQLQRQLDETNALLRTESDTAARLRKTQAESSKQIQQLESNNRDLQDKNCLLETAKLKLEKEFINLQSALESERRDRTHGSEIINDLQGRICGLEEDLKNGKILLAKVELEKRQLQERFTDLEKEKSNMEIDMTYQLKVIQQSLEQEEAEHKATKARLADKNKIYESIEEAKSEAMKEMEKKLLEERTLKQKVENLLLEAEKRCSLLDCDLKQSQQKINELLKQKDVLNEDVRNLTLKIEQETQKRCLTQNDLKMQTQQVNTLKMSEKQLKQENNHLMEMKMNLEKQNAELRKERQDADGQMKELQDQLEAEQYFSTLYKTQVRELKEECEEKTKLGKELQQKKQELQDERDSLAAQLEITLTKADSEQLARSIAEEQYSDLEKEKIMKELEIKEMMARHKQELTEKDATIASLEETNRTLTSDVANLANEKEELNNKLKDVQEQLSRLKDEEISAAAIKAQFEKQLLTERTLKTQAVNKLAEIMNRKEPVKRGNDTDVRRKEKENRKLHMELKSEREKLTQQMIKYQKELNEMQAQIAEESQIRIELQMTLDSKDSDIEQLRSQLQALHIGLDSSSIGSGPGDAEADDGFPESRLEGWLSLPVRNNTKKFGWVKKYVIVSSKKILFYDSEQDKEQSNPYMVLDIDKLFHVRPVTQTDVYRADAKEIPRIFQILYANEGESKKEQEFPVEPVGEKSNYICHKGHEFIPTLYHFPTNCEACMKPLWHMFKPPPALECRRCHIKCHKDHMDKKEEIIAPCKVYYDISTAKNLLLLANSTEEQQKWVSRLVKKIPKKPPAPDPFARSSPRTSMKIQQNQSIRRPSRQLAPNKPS
T11 sequence (P04626 23-1255): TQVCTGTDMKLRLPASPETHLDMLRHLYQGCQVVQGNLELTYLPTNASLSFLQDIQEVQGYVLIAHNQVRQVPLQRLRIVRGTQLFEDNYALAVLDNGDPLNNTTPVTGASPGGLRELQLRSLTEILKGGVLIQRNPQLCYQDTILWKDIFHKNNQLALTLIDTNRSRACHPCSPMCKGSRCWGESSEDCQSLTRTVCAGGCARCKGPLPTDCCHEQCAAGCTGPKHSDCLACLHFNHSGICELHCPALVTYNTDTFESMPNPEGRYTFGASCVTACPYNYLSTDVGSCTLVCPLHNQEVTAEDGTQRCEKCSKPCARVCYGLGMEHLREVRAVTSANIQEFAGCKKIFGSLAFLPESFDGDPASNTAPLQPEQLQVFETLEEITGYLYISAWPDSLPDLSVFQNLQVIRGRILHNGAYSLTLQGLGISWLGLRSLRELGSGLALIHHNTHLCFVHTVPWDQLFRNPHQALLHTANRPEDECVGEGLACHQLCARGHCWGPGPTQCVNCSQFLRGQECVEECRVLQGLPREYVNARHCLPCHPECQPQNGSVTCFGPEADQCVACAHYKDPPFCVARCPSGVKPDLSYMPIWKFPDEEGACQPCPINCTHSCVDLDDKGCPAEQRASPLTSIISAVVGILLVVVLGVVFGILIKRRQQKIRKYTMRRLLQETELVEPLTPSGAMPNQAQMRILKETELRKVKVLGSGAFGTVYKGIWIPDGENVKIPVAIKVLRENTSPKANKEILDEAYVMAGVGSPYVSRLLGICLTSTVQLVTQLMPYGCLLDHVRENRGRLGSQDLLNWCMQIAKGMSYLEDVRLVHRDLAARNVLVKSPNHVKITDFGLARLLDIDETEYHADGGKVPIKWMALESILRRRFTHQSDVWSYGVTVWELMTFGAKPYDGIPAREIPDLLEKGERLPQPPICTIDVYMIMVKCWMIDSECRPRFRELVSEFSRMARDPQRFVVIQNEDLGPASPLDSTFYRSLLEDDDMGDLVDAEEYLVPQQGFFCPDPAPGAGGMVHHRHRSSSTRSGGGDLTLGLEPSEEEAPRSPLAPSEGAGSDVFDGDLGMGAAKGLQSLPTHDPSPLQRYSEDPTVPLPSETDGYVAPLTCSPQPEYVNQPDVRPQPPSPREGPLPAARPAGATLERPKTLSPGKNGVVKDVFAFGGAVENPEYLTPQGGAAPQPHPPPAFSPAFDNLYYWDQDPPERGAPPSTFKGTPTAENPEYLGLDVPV
T19 sequence (P52333 822-1111 limits assumed): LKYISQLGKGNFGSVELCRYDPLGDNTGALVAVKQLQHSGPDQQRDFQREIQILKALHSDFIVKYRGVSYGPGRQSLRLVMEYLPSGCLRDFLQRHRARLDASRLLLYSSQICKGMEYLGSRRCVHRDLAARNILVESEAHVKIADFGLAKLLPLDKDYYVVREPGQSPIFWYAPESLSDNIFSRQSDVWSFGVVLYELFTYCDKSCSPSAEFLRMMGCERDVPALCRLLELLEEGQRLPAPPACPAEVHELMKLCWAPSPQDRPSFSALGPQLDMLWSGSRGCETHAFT
T13 sequence (P27361 whole entry): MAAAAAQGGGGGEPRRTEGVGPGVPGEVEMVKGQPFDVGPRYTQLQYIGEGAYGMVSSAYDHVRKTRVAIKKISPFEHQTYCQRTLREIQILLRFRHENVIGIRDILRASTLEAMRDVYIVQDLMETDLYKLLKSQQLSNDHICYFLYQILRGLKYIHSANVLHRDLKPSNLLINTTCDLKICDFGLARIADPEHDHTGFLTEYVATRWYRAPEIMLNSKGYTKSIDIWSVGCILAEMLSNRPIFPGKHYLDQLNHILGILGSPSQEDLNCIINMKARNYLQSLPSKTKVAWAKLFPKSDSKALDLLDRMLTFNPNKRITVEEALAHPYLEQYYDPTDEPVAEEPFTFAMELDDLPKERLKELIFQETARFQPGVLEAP
T36 sequence (P36897 34-503): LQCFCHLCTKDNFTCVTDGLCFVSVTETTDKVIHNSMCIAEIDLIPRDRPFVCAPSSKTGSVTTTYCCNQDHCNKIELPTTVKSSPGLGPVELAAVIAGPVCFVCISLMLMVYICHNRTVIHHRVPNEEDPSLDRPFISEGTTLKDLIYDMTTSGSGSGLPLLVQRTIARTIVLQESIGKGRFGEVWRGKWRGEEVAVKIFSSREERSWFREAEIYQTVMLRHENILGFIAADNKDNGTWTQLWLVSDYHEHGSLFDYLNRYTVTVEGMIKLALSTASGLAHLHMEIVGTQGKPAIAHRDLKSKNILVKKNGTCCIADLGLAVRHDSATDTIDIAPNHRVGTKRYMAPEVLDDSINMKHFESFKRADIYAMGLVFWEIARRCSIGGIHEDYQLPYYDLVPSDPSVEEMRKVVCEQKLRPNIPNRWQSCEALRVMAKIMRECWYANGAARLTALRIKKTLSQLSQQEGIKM
T5 sequence (P15056 whole entry): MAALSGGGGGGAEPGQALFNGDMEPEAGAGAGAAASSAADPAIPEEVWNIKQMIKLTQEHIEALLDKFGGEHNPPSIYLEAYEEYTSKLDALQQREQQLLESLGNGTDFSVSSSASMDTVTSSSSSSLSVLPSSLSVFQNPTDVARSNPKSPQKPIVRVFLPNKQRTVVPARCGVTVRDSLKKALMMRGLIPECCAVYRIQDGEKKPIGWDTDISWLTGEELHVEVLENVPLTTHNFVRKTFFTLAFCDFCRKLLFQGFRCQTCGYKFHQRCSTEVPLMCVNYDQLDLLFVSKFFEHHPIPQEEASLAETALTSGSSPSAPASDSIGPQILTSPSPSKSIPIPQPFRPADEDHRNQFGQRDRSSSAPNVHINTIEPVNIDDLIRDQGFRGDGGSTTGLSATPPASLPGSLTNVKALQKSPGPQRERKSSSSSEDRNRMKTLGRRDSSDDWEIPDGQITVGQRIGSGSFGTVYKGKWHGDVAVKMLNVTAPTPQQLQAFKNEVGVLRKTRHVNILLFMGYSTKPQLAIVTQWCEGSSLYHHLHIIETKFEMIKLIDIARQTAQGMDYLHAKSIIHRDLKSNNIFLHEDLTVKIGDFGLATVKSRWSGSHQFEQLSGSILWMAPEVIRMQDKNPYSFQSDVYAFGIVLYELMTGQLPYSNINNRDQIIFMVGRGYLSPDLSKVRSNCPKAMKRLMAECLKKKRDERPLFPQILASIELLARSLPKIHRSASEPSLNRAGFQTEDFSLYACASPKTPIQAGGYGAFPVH
T31 sequence (Q9BVS4 whole entry): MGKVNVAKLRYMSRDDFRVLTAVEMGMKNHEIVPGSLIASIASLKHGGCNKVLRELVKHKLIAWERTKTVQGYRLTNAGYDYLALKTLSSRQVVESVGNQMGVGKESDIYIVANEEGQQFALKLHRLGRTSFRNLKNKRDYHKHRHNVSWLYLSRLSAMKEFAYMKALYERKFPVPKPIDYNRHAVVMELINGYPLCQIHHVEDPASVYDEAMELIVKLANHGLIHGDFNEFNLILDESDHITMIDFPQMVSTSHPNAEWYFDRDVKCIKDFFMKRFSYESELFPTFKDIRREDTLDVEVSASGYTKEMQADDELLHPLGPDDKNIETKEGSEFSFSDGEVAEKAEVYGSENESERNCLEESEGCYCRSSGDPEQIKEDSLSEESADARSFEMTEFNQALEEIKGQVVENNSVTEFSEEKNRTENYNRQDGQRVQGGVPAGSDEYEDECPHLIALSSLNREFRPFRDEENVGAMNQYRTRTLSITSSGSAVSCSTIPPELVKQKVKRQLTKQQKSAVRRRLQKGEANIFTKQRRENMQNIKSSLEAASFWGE

Work on `COc1cc2c(NC3CCN(C)CC3)cc(-c3ccc(C)o3)nc2cc1OCCCN1CCCC1` [CM-272, 6-methoxy-2-(5-methyl-2-furyl)-N-(1-methyl-4-piperidyl)-7-(3-pyrrolidin-1-ylpropoxy)quinolin-4-amine] yielded a remaining binding at 10 µM [1] of 25%, a remaining binding at 10 µM (ABL1-nonphosphorylated) of 9.4% and a remaining binding at 10 µM (ACVR1B) of 81%. For the same molecule, the remaining binding at 10 µM (AKT2) was 100%, the remaining binding at 10 µM (BRAF) was 14% and the remaining binding at 10 µM (BRAF(V600E)) was 27%. The remaining binding at 10 µM (DCAMKL1) was 22%, the remaining binding at 10 µM (DYRK1B) was 100% and the remaining binding at 10 µM (EGFR) was 100%. The remaining binding at 10 µM (EGFR(L858R)) was 100%, the remaining binding at 10 µM (ERBB2; [6]) was 0% and the Kd (ERBB2; KINOMEscan) was 1600 nM. For the same molecule, the remaining binding at 10 µM (ERBB4) was 97%, the remaining binding at 10 µM (ERK1) was 100% and the remaining binding at 10 µM (FAK) was 96%. The remaining binding at 10 µM (IGF1R) was 97%, the remaining binding at 10 µM (IKK-alpha) was 45% and the remaining binding at 10 µM (IKK-beta) was 13%. The remaining binding at 10 µM [2] was 10%, the remaining binding at 10 µM [3, 6] was 0% and the Kd ([3]; KINOMEscan) was 1800 nM. The remaining binding at 10 µM (JNK3) was 8.9%, the remaining binding at 10 µM (MAPKAPK2) was 87% and the remaining binding at 10 µM (MEK1) was 45%. For the same molecule, the remaining binding at 10 µM (MEK2) was 22%, the remaining binding at 10 µM (MKNK2) was 18% and the remaining binding at 10 µM (PIK3C2B) was 61%. For the same molecule, the remaining binding at 10 µM (PIK3CA) was 40%, the remaining binding at 10 µM (PIK3CG) was 88% and the remaining binding at 10 µM (PIM3) was 81%. For the same molecule, the remaining binding at 10 µM (PKAC-alpha) was 100%, the remaining binding at 10 µM (PLK3) was 73% and the remaining binding at 10 µM (RIOK2) was 27%. It also gave a remaining binding at 10 µM (ROCK2; [6]) of 0.3%, a Kd (ROCK2; KINOMEscan) of 1700 nM and a remaining binding at 10 µM [4] of 46%. For the same molecule, the remaining binding at 10 µM (SNARK) was 12%, the remaining binding at 10 µM (SRC) was 100% and the remaining binding at 10 µM (TGFBR1) was 78%. The remaining binding at 10 µM (TSSK1B) was 100% and the remaining binding at 10 µM [5] was 22%.
